# Read-outs that look alike come from different tables or passages of the source.
# Columns and labels:
# [1] = test system: C26/clone 10 mouse colon carcinoma
# [2] = test system: C26/clone 10 mouse colon carcinoma; remark: listed apart in the source
# [3] = test system: COLO-205 human colon carcinoma xenografts
# [4] = test system: COLO-205 human colon carcinoma xenografts; remark: listed apart in the source
# in vivo [5] = conditions: female, NCr-nu athymic
# in vivo [6] = conditions: female, Balb/C, mouse, po
# in vivo [7] = conditions: female, NCr-nu athymic; remark: listed apart in the source
# [8] = test system: COLO-205 human colon carcinoma xenografts; remark: listed apart in the source
# in vivo [9] = conditions: female, NCr-nu athymic; remark: listed apart in the source
# [10] = Capecitabine 500 mg/kg qd alone
# [11] = highest dose of capecitabine alone
# [12] = Capecitabine 500 mg/kg QD alone
# [13] = Capecitabine 650 mg/kg QD alone
# [14] = Capecitabine 650 mg/kg qd alone
# [15] = Compound A single agent at the MTD
smiles,measurement,setting,value
"O=C(NOCC1CC1)c1ccc(F)c(F)c1Nc1ccc(I)cc1Cl [CI-1040, 2-(2-Chloro-4-iodo-phenylamino)-N-cyclopropylmethoxy-3,4-difluorobenzamide]",% Weight Change,[1]; CI-1040 37.5 mg/kg tid alone,−5.1%
same,CR (complete response),[1]; CI-1040 37.5 mg/kg tid alone,0/10
same,Net Log10 Kill,[1]; CI-1040 37.5 mg/kg tid alone,−0.62
same,Non-specific Deaths,[1]; CI-1040 37.5 mg/kg tid alone,0/10
same,PR (partial response),[1]; CI-1040 37.5 mg/kg tid alone,0/10
same,T-C (tumor growth delay),[1]; CI-1040 37.5 mg/kg tid alone,3.8 days
same,Tumor Free (day 93),[1]; CI-1040 37.5 mg/kg tid alone,0/10
same,% Weight Change,[1]; CI-1040 75.0 mg/kg tid alone,−5.1%
same,CR (complete response),[1]; CI-1040 75.0 mg/kg tid alone,0/10
same,Net Log10 Kill,[1]; CI-1040 75.0 mg/kg tid alone,−0.21
same,Non-specific Deaths,[1]; CI-1040 75.0 mg/kg tid alone,0/10
same,PR (partial response),[1]; CI-1040 75.0 mg/kg tid alone,0/10
same,T-C (tumor growth delay),[1]; CI-1040 75.0 mg/kg tid alone,9.8 days
same,Tumor Free (day 93),[1]; CI-1040 75.0 mg/kg tid alone,0/10
same,% Weight Change,[1]; CI-1040 300.0 mg/kg tid alone,−5.1%
same,CR (complete response),[1]; CI-1040 300.0 mg/kg tid alone,0/10
same,Net Log10 Kill,[1]; CI-1040 300.0 mg/kg tid alone,0.25
same,Non-specific Deaths,[1]; CI-1040 300.0 mg/kg tid alone,0/10
same,PR (partial response),[1]; CI-1040 300.0 mg/kg tid alone,2/10
same,T-C (tumor growth delay),[1]; CI-1040 300.0 mg/kg tid alone,16.7 days
same,Tumor Free (day 93),[1]; CI-1040 300.0 mg/kg tid alone,0/10
same,partial tumor responses,[1]; CI-1040 300 mg/kg/treatment alone,20%
same,loss of initial body weight,"[1]; CI-1040 alone, over the dosage range administered",approximately 5%
same,% Weight Change,[2]; CI-1040 37.5 mg/kg tid alone,−5.6%
same,CR (complete response),[2]; CI-1040 37.5 mg/kg tid alone,0/10
same,Net Log10 Kill,[2]; CI-1040 37.5 mg/kg tid alone,−0.93
same,Non-specific Deaths,[2]; CI-1040 37.5 mg/kg tid alone,0/10
same,PR (partial response),[2]; CI-1040 37.5 mg/kg tid alone,0/10
same,T-C (tumor growth delay),[2]; CI-1040 37.5 mg/kg tid alone,1.9 days
same,Tumor Free (day 56),[2]; CI-1040 37.5 mg/kg tid alone,0/10
same,% Weight Change,[2]; CI-1040 75.0 mg/kg tid alone,−10.5%
same,CR (complete response),[2]; CI-1040 75.0 mg/kg tid alone,0/10
same,Net Log10 Kill,[2]; CI-1040 75.0 mg/kg tid alone,−0.33
same,Non-specific Deaths,[2]; CI-1040 75.0 mg/kg tid alone,0/10
same,PR (partial response),[2]; CI-1040 75.0 mg/kg tid alone,1/10
same,T-C (tumor growth delay),[2]; CI-1040 75.0 mg/kg tid alone,9.0 days
same,Tumor Free (day 56),[2]; CI-1040 75.0 mg/kg tid alone,0/10
same,% Weight Change,[2]; CI-1040 300.0 mg/kg tid alone,−5.3%
same,CR (complete response),[2]; CI-1040 300.0 mg/kg tid alone,0/10
same,Net Log10 Kill,[2]; CI-1040 300.0 mg/kg tid alone,−0.04
same,Non-specific Deaths,[2]; CI-1040 300.0 mg/kg tid alone,0/10
same,PR (partial response),[2]; CI-1040 300.0 mg/kg tid alone,4/10
same,T-C (tumor growth delay),[2]; CI-1040 300.0 mg/kg tid alone,12.5 days
same,Tumor Free (day 56),[2]; CI-1040 300.0 mg/kg tid alone,0/10
same,partial tumor rate,[2]; highest dose of CI-1040 alone,40%
"CCCCCOC(=O)Nc1nc(=O)n([C@@H]2O[C@H](C)[C@@H](O)[C@H]2O)cc1F [Capecitabine, 5′-deoxy-5-fluoro-N-[(pentyloxy)carbonyl]-cytidine]",CR (complete response),[1]; [10],4/10
same,Net Log10 Kill,[1]; [10],0.50
same,Non-specific Deaths,[1]; [10],0/10
same,PR (partial response),[1]; [10],1/10
same,T-C (tumor growth delay),[1]; [10],18.4 days
same,Tumor Free (day 93),[1]; [10],3/10
same,tumor growth delay,[1]; both dosages of capecitabine alone,approximately 18 days
same,complete tumor responses,[1]; capecitabine 500 mg/kg alone,40%
same,partial tumor responses,[1]; capecitabine 500 mg/kg alone,10%
same,tumor-free when the study ended on day 93,[1]; capecitabine 500 mg/kg alone,30%
same,complete tumor responses,[1]; [11],70%
same,partial tumor responses,[1]; [11],10%
same,loss of initial body weight,"[1]; mouse, in vivo",approximately 5%
same,CR (complete response),[3]; [12],0/10
same,Net Log10 Kill,[3]; [12],0.7
same,Non-specific Deaths,[3]; [12],0/10
same,PR (partial response),[3]; [12],1/10
same,T-C (tumor growth delay),[3]; [12],33.4 days
same,Tumor Free (day 118),[3]; [12],0/10
same,CR (complete response),[3]; [13],3/10
same,Net Log10 Kill,[3]; [13],1.5
same,Non-specific Deaths,[3]; [13],0/10
same,PR (partial response),[3]; [13],4/10
same,T-C (tumor growth delay),[3]; [13],56.0 days
same,Tumor Free (day 118),[3]; [13],2/10
same,Tumor Free (day 129),[4]; [10],0/10
same,Non-specific Deaths,[4]; [14],0/10
same,Tumor Free (day 129),[4]; [14],0/10
same,MTD,in vivo [5],650 mg/kg
same,CR (complete response),[2]; [10],0/10
same,Net Log10 Kill,[2]; [10],0.20
same,Non-specific Deaths,[2]; [10],0/10
same,PR (partial response),[2]; [10],0/10
same,T-C (tumor growth delay),[2]; [10],13.4 days
same,Tumor Free (day 56),[2]; [10],0/10
same,partial tumor responses,[2]; capecitabine 750 mg/kg alone,40%
same,MTD,in vivo [6],750 mg/kg/day
same,MTD,in vivo [7],650 mg/kg
same,Tumor Free (day 112),[8]; [10],1/9
same,Non-specific Deaths,[8]; [14],0/10
same,Tumor Free (day 112),[8]; [14],2/10
same,MTD,in vivo [9],650 mg/kg
"O=C(NOC[C@H](O)CO)c1ccc(F)c(F)c1Nc1ccc(I)cc1F [Compound A, N-[(R)-2,3-Dihydroxy-propoxy]-3,4-difluoro-2-(2-fluoro-4-iodo-phenylamino)-benzamide]",Net Log10 Kill,[3]; Compound A 3.13 mg/kg QD alone,0.9
same,T-C (tumor growth delay),[3]; Compound A 3.13 mg/kg QD alone,40.6 days
same,Net Log10 Kill,[3]; Compound A 6.25 mg/kg QD alone,0.6
same,T-C (tumor growth delay),[3]; Compound A 6.25 mg/kg QD alone,30.1 days
same,growth delays,[3]; [15],up to 42 days
same,tumor cells survived treatment (net kill calculations),"[3]; Compound A single agent, all tolerated dose levels",> 10%
same,complete regressions,"[3]; Compound A single agent, all tolerated doses",> 50%
same,tumor cells survived treatment (net kill calculations),[4]; [15],< 10%
same,MTD,in vivo [5],12.5 mg/kg
same,MTD,in vivo [7],12.5 mg/kg
same,tumor cells survived treatment (net kill calculations),"[8]; Compound A single agent, most tolerated dose levels",> 10%
same,MTD,in vivo [9],12.5 mg/kg
